Measured values from the NIST ThermoML archive (doi:10.1021/acs.jced.9b00509).

Test: mean ionic activity coefficient (dimensionless); mn = molality of the nth substance listed, in mol/kg
Conditions: 278.15 K, 100 kPa, Liquid, cell potential measurements

[Cl-].[Na+] [sodium chloride] + O
Conditions	mean ionic activity coefficient
m1 = 0.0101	0.895
m1 = 0.05	0.833
m1 = 0.0999	0.771
m1 = 0.1999	0.741
m1 = 0.5	0.642
m1 = 0.9999	0.619
m1 = 1.999	0.628
m1 = 2.999	0.654
